Source: ChEMBL document CHEMBL1201862, “PubChem BioAssay data set” (2004)
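Protocol summary: plate cells (96-well), add compound at 5 concentrations, incubate 48 h, interpolate endpoints linearly. GI50: concentration for 50% inhibition of growth.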 Active and inactive are the calls of the source. Cut-off read from the data, not from the text of the source: active = GI50 up to about 1.1 µM and inactive = higher.

How the values were obtained:
Assay in all cases: NCI tumour cell line growth inhibition, 48 h
A549 = test system: A549
HL-60 = test system: HL-60
HCT-15 = test system: HCT-15
MDA-MB-435 = test system: MDA-MB-435
IGROV-1 = test system: IGROV-1
OVCAR-8 = test system: OVCAR-8
NCI/ADR-RES = test system: NCI/ADR-RES
NCI-H226 = test system: NCI-H226
MOLT-4 = test system: MOLT-4
KM12 = test system: KM12
MDA-N = test system: MDA-N
MDA-MB-231 = test system: MDA-MB-231
K562 = test system: K562
BT-549 = test system: BT-549
Malme-3M = test system: Malme-3M
EKVX = test system: EKVX
NCI-H23 = test system: NCI-H23
SF-268 = test system: SF-268
UACC-257 = test system: UACC-257
OVCAR-4 = test system: OVCAR-4

Compound | GI50 (A549) | GI50 (HL-60) | GI50 (HCT-15) [µM] | GI50 (MDA-MB-435) | GI50 (IGROV-1) | GI50 (OVCAR-8) | GI50 (NCI/ADR-RES) | GI50 (NCI-H226) | GI50 (MOLT-4) | GI50 (KM12) | GI50 (MDA-N) | GI50 (MDA-MB-231) | GI50 (K562) | GI50 (BT-549) | GI50 (Malme-3M) | GI50 (EKVX) | GI50 (NCI-H23) | GI50 (SF-268) | GI50 (UACC-257) | GI50 (OVCAR-4)
FC(F)(F)c1cc(N(C2c3ccccc3C=Cc3ccccc32)P(Cl)Cl)cc(C(F)(F)F)c1 | 18.3 µM (inactive) | 20 µM (inactive) | 5.78 | 21.8 µM (inactive) | 26.2 µM (inactive) | 17.6 µM (inactive) | 3.62 µM (inactive) | 19.1 µM (inactive) | 13.1 µM (inactive) | 21.4 µM (inactive) | 22 µM (inactive) | 18.6 µM (inactive) | 15.2 µM (inactive) | 0.706 µM (active) | 17.5 µM (inactive) | 17.1 µM (inactive) | 18 µM (inactive) | 17.2 µM (inactive) | 18.3 µM (inactive) | 18.9 µM (inactive)
CCO[C@@]1(COCc2ccccc2)OC(=O)C[C@@H]1N1C(=O)OC[C@@H]1c1ccccc1 | > 100 µM (inactive) | 42.8 µM (inactive) | > 100 | > 100 µM (inactive) | > 100 µM (inactive) | > 100 µM (inactive) | > 100 µM (inactive) | > 100 µM (inactive) | 58.9 µM (inactive) | 32.5 µM (inactive) | > 100 µM (inactive) | > 100 µM (inactive) | > 100 µM (inactive) | > 100 µM (inactive) | > 100 µM (inactive) | > 100 µM (inactive) | > 100 µM (inactive) | > 100 µM (inactive) | > 100 µM (inactive) | > 100 µM (inactive)
CC(=O)c1csc2c1C(=O)c1scc(C(C)=O)c1C2=O | 1.97 µM (inactive) | 0.112 µM (active) | 1.62 | 0.188 µM (active) | 1.57 µM (inactive) | 1.54 µM (inactive) | 1.61 µM (inactive) | 2.25 µM (inactive) | 0.347 µM (active) | 1.73 µM (inactive) | 0.176 µM (active) | 0.348 µM (active) | 0.74 µM (active) | 1.75 µM (inactive) | 1.49 µM (inactive) | 1.89 µM (inactive) | 1.37 µM (inactive) | 1.47 µM (inactive) | 0.942 µM (active) | 0.587 µM (active)
Cc1c(CCN2CCOCC2)c(N2CCOCC2)n2c(nc3ccccc32)c1C#N | > 10 µM (inactive) | > 10 µM (inactive) | > 10 | > 10 µM (inactive) | > 10 µM (inactive) | > 10 µM (inactive) | > 10 µM (inactive) | > 10 µM (inactive) | > 10 µM (inactive) | > 10 µM (inactive) | > 10 µM (inactive) | > 10 µM (inactive) | > 10 µM (inactive) | > 10 µM (inactive) | > 10 µM (inactive) | > 10 µM (inactive) | > 10 µM (inactive) | > 10 µM (inactive) | > 10 µM (inactive) | > 10 µM (inactive)
C=CC[C@@]1(OC(C)=O)C(=O)C(=O)OC1C1COC(C)(C)O1 (stereo not given in full) | 24.1 µM (inactive) | 10.8 µM (inactive) | 15 | 16.8 µM (inactive) | 18.6 µM (inactive) | 20.1 µM (inactive) | 25.3 µM (inactive) | 35.3 µM (inactive) | 14.3 µM (inactive) | 15.7 µM (inactive) | 16.5 µM (inactive) | 15.8 µM (inactive) | 15.3 µM (inactive) | 21.1 µM (inactive) | 17.2 µM (inactive) | 16.4 µM (inactive) | 20.3 µM (inactive) | 19.5 µM (inactive) | 16.3 µM (inactive) | 18.6 µM (inactive)
COC(=O)[C@@H]1C=C[C@H](OC2OC(COC(C)=O)C(OC(C)=O)C(OC(C)=O)C2OC(C)=O)n2c(=O)n(-c3ccccc3)c(=O)n21 (stereo not given in full) | 14.7 µM (inactive) | 1.1 µM (active) | 1.84 | 5.14 µM (inactive) | 3.87 µM (inactive) | 2.55 µM (inactive) | 6.92 µM (inactive) | 12.2 µM (inactive) | 2.13 µM (inactive) | 5.5 µM (inactive) | 2.57 µM (inactive) | 2.7 µM (inactive) | 1.61 µM (inactive) | 2.29 µM (inactive) | 2.01 µM (inactive) | 5.9 µM (inactive) | 5.3 µM (inactive) | 2.51 µM (inactive) | 2.13 µM (inactive) | 1.77 µM (inactive)
Cc1ccc(S(=O)(=O)N/N=C2\CCCCCCCCCCC2CN(C)C)cc1 (stereo not given) | 19.3 µM (inactive) | 19.4 µM (inactive) | 15 | 14.7 µM (inactive) | 16 µM (inactive) | 16.8 µM (inactive) | 14.9 µM (inactive) | 15.7 µM (inactive) | 26.7 µM (inactive) | 17.9 µM (inactive) | 18.5 µM (inactive) | 18.9 µM (inactive) | 13.2 µM (inactive) | 17.7 µM (inactive) | 16.6 µM (inactive) | 22.9 µM (inactive) | 23 µM (inactive) | 21.3 µM (inactive) | 15 µM (inactive) | 18 µM (inactive)
